These results are taken from patent US7794994B2 (Kemeta, LLC, priority 2001, dated 2010).

Series [1] concerns the target T1, S-ADH from T. brockii (Thermoanaerobacter brockii, UniProt P14941).
T1 sequence (P14941 1-352): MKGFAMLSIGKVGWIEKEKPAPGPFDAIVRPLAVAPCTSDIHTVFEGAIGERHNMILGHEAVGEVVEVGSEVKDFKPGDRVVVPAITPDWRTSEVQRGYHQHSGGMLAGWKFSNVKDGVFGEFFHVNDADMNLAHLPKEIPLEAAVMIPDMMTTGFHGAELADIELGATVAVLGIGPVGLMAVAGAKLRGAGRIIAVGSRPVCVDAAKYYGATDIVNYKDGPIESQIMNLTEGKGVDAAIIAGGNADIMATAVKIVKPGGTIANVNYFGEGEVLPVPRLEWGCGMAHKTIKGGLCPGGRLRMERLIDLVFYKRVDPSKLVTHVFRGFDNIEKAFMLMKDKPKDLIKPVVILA
Nature of the series: S-ADH spectrophotometric assay, T. brockii S-ADH. Type of series: biochemical, Thermoanaerobium brockii. As to conditions: for Relative S-ADH Activity (%) T. brockii, alcohol oxidation: alcohol oxidation rates, pH 7.6, 2.5 mM substrate, 0.2 mM NADP+, 2-propanol = 100, NA = no activity detected; for Relative S-ADH Activity (%) T. brockii, ketone reduction: ketone reduction rates, pH 6.2, 2.5 mM substrate, 0.2 mM NADPH, acetone = 100. The procedure:
[…] Assays were pre-incubated for 1.5 min. at 30° C. with all assay components except substrate. Assays were initiated by addition of substrate (2.5 mM) and monitored over time by measuring the change in absorbance at 340 nm (∈340 of 6.22 mM^−1·cm^−1 for NADH).

Series [2] deals with T2, acetone carboxylase coupled to β-hydroxybutyrate dehydrogenase (Xanthobacter versatilis, UniProt Q8RM03+Q8RM04).
T2 construct: host or cells: X. autotrophicus strain Py2 (native organism; enzyme obtained from Prof; S. A. Ensign / purified as previously published)
T2 sequence (Q8RM03 1-776): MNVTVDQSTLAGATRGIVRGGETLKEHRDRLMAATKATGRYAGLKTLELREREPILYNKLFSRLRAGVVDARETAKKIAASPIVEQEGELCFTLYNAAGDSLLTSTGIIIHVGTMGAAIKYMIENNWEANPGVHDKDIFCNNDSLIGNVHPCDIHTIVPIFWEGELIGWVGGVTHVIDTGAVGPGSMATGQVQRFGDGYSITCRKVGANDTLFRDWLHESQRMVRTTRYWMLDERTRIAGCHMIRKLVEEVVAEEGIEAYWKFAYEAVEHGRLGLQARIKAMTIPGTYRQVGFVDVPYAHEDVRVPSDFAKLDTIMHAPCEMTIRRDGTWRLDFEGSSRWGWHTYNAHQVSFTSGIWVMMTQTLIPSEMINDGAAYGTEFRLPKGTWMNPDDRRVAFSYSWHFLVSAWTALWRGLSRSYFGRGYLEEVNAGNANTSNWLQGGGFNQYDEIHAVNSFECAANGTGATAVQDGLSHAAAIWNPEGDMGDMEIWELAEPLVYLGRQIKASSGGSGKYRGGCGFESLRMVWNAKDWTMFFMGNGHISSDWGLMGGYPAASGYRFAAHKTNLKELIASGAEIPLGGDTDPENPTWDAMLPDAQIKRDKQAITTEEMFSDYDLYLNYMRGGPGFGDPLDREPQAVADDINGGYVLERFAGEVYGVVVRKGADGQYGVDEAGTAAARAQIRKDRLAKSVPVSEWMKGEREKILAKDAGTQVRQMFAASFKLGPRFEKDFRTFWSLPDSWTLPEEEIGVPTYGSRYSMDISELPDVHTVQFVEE
T2 sequence (Q8RM04 1-717): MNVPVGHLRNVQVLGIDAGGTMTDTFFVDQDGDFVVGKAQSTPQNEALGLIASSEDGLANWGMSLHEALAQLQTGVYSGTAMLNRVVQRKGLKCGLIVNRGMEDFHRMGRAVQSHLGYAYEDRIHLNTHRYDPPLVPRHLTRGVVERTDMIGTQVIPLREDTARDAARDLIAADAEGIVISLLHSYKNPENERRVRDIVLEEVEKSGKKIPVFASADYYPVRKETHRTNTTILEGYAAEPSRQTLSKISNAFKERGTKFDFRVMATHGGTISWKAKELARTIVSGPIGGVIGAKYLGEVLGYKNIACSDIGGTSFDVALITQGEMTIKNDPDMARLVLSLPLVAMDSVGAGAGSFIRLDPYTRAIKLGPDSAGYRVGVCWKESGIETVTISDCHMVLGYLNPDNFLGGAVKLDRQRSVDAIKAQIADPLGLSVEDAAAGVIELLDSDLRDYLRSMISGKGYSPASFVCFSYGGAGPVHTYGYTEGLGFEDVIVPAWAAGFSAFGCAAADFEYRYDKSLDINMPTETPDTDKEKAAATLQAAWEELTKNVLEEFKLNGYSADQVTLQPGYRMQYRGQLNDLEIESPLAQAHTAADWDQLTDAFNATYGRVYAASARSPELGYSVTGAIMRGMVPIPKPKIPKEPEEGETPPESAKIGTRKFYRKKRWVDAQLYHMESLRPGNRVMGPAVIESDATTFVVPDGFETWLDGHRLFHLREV
T2 sequence (Q8RM02 2-168 partner limits assumed): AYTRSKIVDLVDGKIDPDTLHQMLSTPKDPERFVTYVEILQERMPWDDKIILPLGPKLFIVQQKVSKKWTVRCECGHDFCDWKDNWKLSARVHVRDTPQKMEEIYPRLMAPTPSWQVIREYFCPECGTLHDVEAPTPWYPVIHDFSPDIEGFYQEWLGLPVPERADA
The experiment in a line: Acetone carboxylase coupled to NADH oxidation spectrophotometric assay. In kind it is biochemical, X. autotrophicus strain Py2. The note with it: for activity as substrate and inhibition of acetone carboxylation activity: alternative compounds in coupled enzyme system. As for the experimental part: Assays were performed in 2 mL (1 cm path length) quartz cuvettes that had been modified by fusing a serum bottle-style quartz top (7×13 mm at mouth), allowing the cuvettes to be sealed with a red rubber serum stopper. […] The addition of […] (3 U) and NADH (0.2 mM) allowed acetoacetate formation to be coupled to the oxidation of NADH. […] The reaction was monitored by measuring the decrease in absorbance at 340 nm (∈340 of 6.22 mM^−·cm^−1 for NADH) over time in an Agilent Technologies (Palo Alto, Calif.) model 8453 UV-Visible Spectroscopy System containing a thermostat-controlled cell holder at 30° C.

Series [3] concerns S-ADH purified from M vaccae strain JOB-5. The note with it: M vaccae enzyme; alcohols oxidized, acetone reduced; cited from earlier work.
Series [4] relates to secondary alcohol dehydrogenase from R. rhodochrous PNKb1. The note with it: R. rhodochrous PNKb1 enzyme; cited from earlier work.
Series [5] concerns S-ADH from Pseudomonas species 6307. The note with it: cited from earlier work.
Series [6] concerns the target T3, acetone carboxylase from X. autotrophicus strain Py2 (Xanthobacter versatilis, UniProt Q8RM03+Q8RM04).
T3 sequence (Q8RM03 1-776): T2 sequence (Q8RM03 1-776)
T3 sequence (Q8RM04 1-717): T2 sequence (Q8RM04 1-717)
T3 sequence (Q8RM02 2-168 partner limits assumed): T2 sequence (Q8RM02 2-168 partner limits assumed)
The note with it: cited from earlier work.

Series [7] has as its system acetone carboxylase from Rhodobacter capsulatus strain B10. As to conditions: cited from earlier work.
The conditions of series [8]: as reported by NIST; cited from earlier work.

Where two headings read alike, the source gives them in different places.

As to `CCC(C)O` (stereo not shown) [2-Butanol], in series [1], the “Relative S-ADH Activity (%) T. brockii, alcohol oxidation” value is 121%. In addition, the “activity as substrate and inhibition of acetone carboxylation activity” value (shortened to “activity as substrate and inhibition”) in series [2] is reported as “not active nor did they inhibit acetone carboxylation activity”.

`CCCO` [1-Propanol]: the Km in series [3] was 8100 µM; in series [4], 18000 µM. Also, in series [2], the “activity as substrate and inhibition” value is “not active nor did they inhibit acetone carboxylation activity”.

`CCO` [Ethanol]: the inhibition by ethanol is listed as 0% in series [5] (in the presence of 10 mM ethanol) and 30% in series [5] (in the presence of 100 mM ethanol). Also, the “effect on rate of NADH oxidation (inhibition)” value in series [2] (addition of ethanol (10 mM)) is on record as “no decrease in the rate was observed”.

With `CCC(C)=O` [2-Butanone], in series [1], the “Relative S-ADH Activity (%) T. brockii, ketone reduction” value came out at 67%. The “carboxylation rate relative to that of acetone” value in series [6] is listed as 40%. Moreover, the “rate relative to acetone using the coupled enzyme system” value in series [2] is reported as 3 to 4%.

`CC(C)O` [2-Propanol]: the “Relative S-ADH Activity (%) T. brockii, alcohol oxidation” value in series [1] was determined as 100%. The Michaelis-Menten constant (Km) in series [3] is 50 µM; in series [4], 12000 µM. Besides, the “activity as substrate and inhibition” value in series [2] was “not active nor did they inhibit acetone carboxylation activity”.

With `CC(C)=O` [Acetone, acetone], the Km in series [7] was 8.2 µM; in series [3], 300 µM; in series [6] (read-out: apparent Km) it was 7.8 µM. Besides, the Vmax in series [7] is given as 0.291 μmol acetone consumed·min^−1mg^−1 protein; in series [6], 0.206 μmol acetone consumed·min^−1·mg^−1 protein. Moreover, the “Relative S-ADH Activity (%) T. brockii, ketone reduction” value in series [1] is recorded as 100%. In addition, in series [8], the “Henry's Law constant” value is given as 24 M·atm^−1.
